Holding throughout (design): species or system Hepatitis C virus
The test system of one assay is HCV replicon 1A. The assay is described as follows: Cell-based HCV replicon assay (Replicon Assay A), replicon 1A. The note with it: replicon RNA by real time PCR, day 3. The method, boiled down: (§1)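 Replicon cells were seeded at 2000/well with compound, 10 serial dilutions starting at 333.3 nM to 1.667 nM, in 0.5% DMSO and 5% FBS, then harvested on day 3. Replicon RNA was measured by multiplex TaqMan RT-PCR with cyclophilin as endogenous control. EC50 is the concentration raising Ct by 1 over projected baseline.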
A general note: A replicon is a self-replicating genome or part of one, used to study replication in cells.

In the next assay the test system is HCV replicon 1B. The assay is described as follows: Cell-based HCV replicon assay (Replicon Assay B), replicon 1B. The note with it: replicon RNA by real-time PCR, 3 days. The method, then: In an alternate assay (“Replicon Assay B”), 1000 cells were seeded per well in a 384-well collagen coated black plate from Greiner bio-one (Cat #781946) in 5% FBS. Inhibitors of this invention were added at 24 h post-seeding, and the plates were incubated for 3 days. Cells were subsequently lysed with Qiagen lysis buffer (Cat #1062731) to extract the RNA. HCV replicon RNA level was measured by real-time PCR using the RNA-to-CT kit from Applied Biosystem (Cat #4392656) and genotype-specific primers and probes. The amplicon was located within NS5B. […] (SEQ. ID NO. 2); the probe sequence was FAM-labeled […] (SEQ. ID NO. 3).
The real-time RT-PCR reactions were run on ABI PRISM 7900HT or Viia7 Sequence Detection System using the following program: 48° C. for 30 minutes, 95° C. for 10 minutes, 40 cycles of 95° C. for 15 sec, 60° C. for 1 minutes.
EC50 data for replicons 1A, 1AY93H and 2B were obtained using Replicon Assay A and EC50 data for replicon 1B was obtained using Replicon Assay B.

In the next assay the test system is HCV replicon 2B. Kind of assay: Cell-based HCV replicon assay (Replicon Assay A), replicon 2B. To be noted: replicon RNA by real time PCR, day 3. The method, boiled down: as §1
Another assay concerns HCV replicon 1A Y93H. Kind of assay: Cell-based HCV replicon assay (Replicon Assay A), replicon 1AY93H. To be noted: replicon RNA by real time PCR, day 3. The method, boiled down:
as §1

[1] abbreviates: read-out: EC50 replicon 2B, Replicon Assay A.
The mark [2] stands for this setting: read-out: EC50 replicon 1A Y93H, Replicon Assay A.
Where [3] appears, read: Hepatitis C virus, 72 h, read-out: EC50 replicon 1A Y93H, Replicon Assay A.

Like-named read-outs stand apart in the source and are kept apart here.

Turning to `COC(=O)N[C@H](C(=O)N1CCC[C@H]1c1ncc(-c2cc(F)c3c(c2)OC(c2ccc4c(c2)OCCC4)n2c-3cc3cc(-c4cnc([C@@H]5CCCN5C(=O)[C@@H](NC(=O)OC)C5CCOCC5)[nH]4)ccc32)[nH]1)C(C)C` (single isomer, unassigned) [Compound 32], the 50% effective concentration (EC50) came to 2.6 pM in the assay with HCV replicon 1A, 2.6 pM with HCV replicon 1B, 3 pM with HCV replicon 2B (setting [1]) and 10 pM in the assay on HCV replicon 1A Y93H (setting [2]).
As to `COC(=O)N[C@H](C(=O)N1CCC[C@H]1c1ncc(-c2ccc3c(c2)cc2n3C(c3ccc4c(c3)OCCC4)Oc3cc(-c4cnc([C@@H]5CCCN5C(=O)[C@@H](NC(=O)OC)C5CCOCC5)[nH]4)cc(F)c3-2)[nH]1)C(C)C` (single isomer, unassigned) [Compound 33], the EC50 in the assay on HCV replicon 1A (Hepatitis C virus, 72 h) is 1.8 pM; in the assay on HCV replicon 1B (Hepatitis C virus, 72 h), 2.1 pM; in the assay on HCV replicon 2B (setting [1]), 114 pM; in the assay with HCV replicon 1A Y93H (setting [2]), 598 pM.
For the compound `COC(=O)N[C@H](C(=O)N1CCC[C@H]1c1ncc(-c2ccc3c(c2)cc2n3C(c3ccc4c(c3)OCCC4)Oc3cc(-c4cnc([C@@H]5CCCN5C(=O)[C@@H](NC(=O)OC)C5CCOCC5)[nH]4)cc(F)c3-2)[nH]1)C(C)C` (single isomer, unassigned) [Compound 34], the EC50 worked out at 2.1 pM with HCV replicon 1A, 3 pM in the assay with HCV replicon 1B, 5 pM in the assay with HCV replicon 2B (setting [1]) and 8 pM in the assay on HCV replicon 1A Y93H (setting [2]).
Consider `COC(=O)N[C@H](C(=O)N1CCC[C@H]1c1ncc(-c2cc(F)c3c(c2)OC(c2ccc4c(c2)CCCO4)n2c-3cc3cc(-c4cnc([C@@H]5CCCN5C(=O)[C@@H](NC(=O)OC)C5CCOCC5)[nH]4)ccc32)[nH]1)C(C)C` (single isomer, unassigned) [Compound 35], for which the EC50 is 3.4 pM with HCV replicon 1A (Hepatitis C virus, 72 h); 1.2 pM in the assay on HCV replicon 1B (Hepatitis C virus, 72 h); 258 pM in the assay with HCV replicon 2B (Hepatitis C virus, 72 h, read-out: EC50 replicon 2B, Replicon Assay A); 61 pM in the assay on HCV replicon 1A Y93H (setting [2]).
In the case of `CCO[C@H](C)[C@H](NC(=O)OC)C(=O)N1CCC[C@H]1c1ncc(-c2cc(F)c3c(c2)OC(c2ccc4c(c2)OCCC4)n2c-3cc3cc(-c4cnc([C@@H]5CCCN5C(=O)[C@@H](NC(=O)OC)C(C)C)[nH]4)ccc32)[nH]1` (single isomer, unassigned) [Compound 39], the half-maximal effective concentration (EC50) with HCV replicon 1A (Hepatitis C virus, 72 h) worked out at 1.7 pM; with HCV replicon 1B (Hepatitis C virus, 72 h) it was 1.4 pM; in the assay with HCV replicon 2B (setting [1]), 910 pM; with HCV replicon 1A Y93H (setting [2]), 3380 pM.
Consider `CCO[C@H](C)[C@H](NC(=O)OC)C(=O)N1CCC[C@H]1c1ncc(-c2cc(F)c3c(c2)OC(c2ccc4c(c2)OCCC4)n2c-3cc3cc(-c4cnc([C@@H]5CCCN5C(=O)[C@@H](NC(=O)OC)C(C)C)[nH]4)ccc32)[nH]1` (single isomer, unassigned) [Compound 40], for which the 50% effective concentration (EC50) in the assay on HCV replicon 1A worked out at 2.1 pM; in the assay with HCV replicon 1B, 2.2 pM; with HCV replicon 2B (setting [1]), 86 pM; with HCV replicon 1A Y93H (setting [2]), 107 pM.
For `COC(=O)NC(C(=O)N1CCC[C@H]1c1ncc(-c2ccc3c(c2)cc2n3C(c3ccc4c(c3)OCCC4)Oc3cc(-c4cnc([C@@H]5CCCN5C(=O)[C@@H](NC(=O)OC)C(C)C)[nH]4)cc(F)c3-2)[nH]1)C(C)(C)F` (single isomer, unassigned) [Compound 43], the EC50 with HCV replicon 1A (Hepatitis C virus, 72 h) worked out at 2.2 pM; in the assay on HCV replicon 1B (Hepatitis C virus, 72 h), 2.3 pM; in the assay on HCV replicon 2B (setting [1]), 81 pM; in the assay with HCV replicon 1A Y93H (setting [3]), 75 pM.
As to `COC(=O)N[C@H](C(=O)N1CCC[C@H]1c1ncc(-c2cc(F)c3c(c2)OC(c2ccc4c(c2)OCC4)n2c-3cc3cc(-c4cnc([C@@H]5C[C@H]6C[C@H]6N5C(=O)[C@@H](NC(=O)OC)C(C)C)[nH]4)ccc32)[nH]1)C(C)C` (single isomer, unassigned) [Compound 48], the EC50 in the assay on HCV replicon 1A (Hepatitis C virus, 72 h) came to 1.9 pM; with HCV replicon 1B (Hepatitis C virus, 72 h) it was 1.5 pM; with HCV replicon 2B (setting [1]), 382 pM; in the assay with HCV replicon 1A Y93H (setting [2]) it was 33 pM.
For the compound `COC(=O)N[C@H](C(=O)N1CCC[C@H]1c1ncc(-c2ccc3c(c2)OC(c2ccc4c(c2)OCCC4)n2c-3cc3cc(-c4cnc([C@@H]5C[C@H]6C[C@H]6N5C(=O)[C@@H](NC(=O)OC)C(C)C)[nH]4)ccc32)[nH]1)C(C)C` (single isomer, unassigned) [Compound 50], the concentration for a half-maximal effect (EC50) with HCV replicon 1A is 1.4 pM; in the assay with HCV replicon 1B (Hepatitis C virus, 72 h), 1.4 pM; in the assay on HCV replicon 2B (setting [1]), 36 pM; in the assay with HCV replicon 1A Y93H (setting [2]), 60 pM.
In the case of `COC(=O)N[C@H](C(=O)N1CCC[C@H]1c1ncc(-c2ccc3c(c2)OC(c2ccc4c(c2)CCCO4)n2c-3cc3cc(-c4cnc([C@@H]5C[C@H]6C[C@H]6N5C(=O)[C@@H](NC(=O)OC)C(C)C)[nH]4)ccc32)[nH]1)C(C)C` (single isomer, unassigned) [Compound 51], the concentration for a half-maximal effect (EC50) in the assay on HCV replicon 1A (Hepatitis C virus, 72 h) amounted to 1.9 pM; with HCV replicon 1B (Hepatitis C virus, 72 h), 2.5 pM; in the assay with HCV replicon 2B (setting [1]), 4770 pM; in the assay with HCV replicon 1A Y93H (setting [2]), 2130 pM.
As to `COC(=O)N[C@H](C(=O)N1CCC[C@H]1c1ncc(-c2ccc3c(c2)OC(c2ccc4c(c2)CCCO4)n2c-3cc3cc(-c4cnc([C@@H]5C[C@H]6C[C@H]6N5C(=O)[C@@H](NC(=O)OC)C(C)C)[nH]4)ccc32)[nH]1)C(C)C` (single isomer, unassigned) [Compound 52], the concentration for a half-maximal effect (EC50) with HCV replicon 1A amounted to 2.2 pM; in the assay with HCV replicon 1B it was 3.1 pM; in the assay with HCV replicon 2B (setting [1]), 1670 pM; in the assay with HCV replicon 1A Y93H (setting [2]), 454 pM.
Consider `CCN(CC)[C@@H](C(=O)N1[C@@H]2C[C@@H]2C[C@H]1c1ncc(-c2ccc3c(c2)cc2n3C(c3ccc4c(c3)OCCC4)Oc3cc(-c4cnc([C@@H]5CCCN5C(=O)[C@@H](NC(=O)OC)C5CCOCC5)[nH]4)cc(F)c3-2)[nH]1)c1ccccc1` (single isomer, unassigned) [Compound 54], for which the EC50 in the assay on HCV replicon 1A (Hepatitis C virus, 72 h) was 4.9 pM; with HCV replicon 1B (Hepatitis C virus, 72 h) it was 2.4 pM; in the assay with HCV replicon 2B (setting [1]), 11 pM; with HCV replicon 1A Y93H (setting [3]) it was 8 pM.
Take `COC(=O)NC(C(=O)N1CCC[C@H]1c1ncc(-c2ccc3c(c2)cc2n3C(c3ccc4c(c3)OC(C)CC4)Oc3cc(-c4cnc([C@@H]5CCCN5C(=O)[C@@H](NC(=O)OC)C(C)C)[nH]4)cc(F)c3-2)[nH]1)C1C[C@@H](C)O[C@@H](C)C1` (single isomer, unassigned) [Compound 59]: the EC50 in the assay on HCV replicon 1A was 3.2 pM; in the assay on HCV replicon 1B (Hepatitis C virus, 72 h), 2.7 pM; in the assay on HCV replicon 2B (setting [1]), 17 pM; in the assay on HCV replicon 1A Y93H (setting [2]) it was 15 pM.
Turning to `COC(=O)NC(C(=O)N1CCC[C@H]1c1ncc(-c2ccc3c(c2)cc2n3C(c3ccc4c(c3)OC(C)CC4)Oc3cc(-c4cnc([C@@H]5CCCN5C(=O)[C@@H](NC(=O)OC)C(C)C)[nH]4)cc(F)c3-2)[nH]1)C1C[C@@H](C)O[C@@H](C)C1` (single isomer, unassigned) [Compound 60], the 50% effective concentration (EC50) in the assay with HCV replicon 1A was determined as 3 pM; in the assay on HCV replicon 1B, 3.1 pM; in the assay on HCV replicon 2B (setting [1]), 25 pM; with HCV replicon 1A Y93H (setting [2]) it was 20 pM.
Regarding `COC(=O)NC(C(=O)N1CCC[C@H]1c1ncc(-c2ccc3c(c2)cc2n3C(c3ccc4c(c3)OC(C)CC4)Oc3cc(-c4cnc([C@@H]5CCCN5C(=O)[C@@H](NC(=O)OC)C(C)C)[nH]4)cc(F)c3-2)[nH]1)C1CCOC(C)(C)C1` (single isomer, unassigned) [Compound 63], the EC50 is 2.6 pM in the assay with HCV replicon 1A; 2 pM in the assay on HCV replicon 1B (Hepatitis C virus, 72 h); 16 pM in the assay with HCV replicon 2B (setting [1]); 32 pM in the assay with HCV replicon 1A Y93H (setting [2]).
As to `COC(=O)NC(C(=O)N1CCC[C@H]1c1ncc(-c2ccc3c(c2)cc2n3C(c3ccc4c(c3)OC(C)CC4)Oc3cc(-c4cnc([C@@H]5CCCN5C(=O)[C@@H](NC(=O)OC)C(C)C)[nH]4)cc(F)c3-2)[nH]1)C1CCOC(C)(C)C1` (single isomer, unassigned) [Compound 64], the half-maximal effective concentration (EC50) with HCV replicon 1A came to 2.7 pM; with HCV replicon 1B it was 4 pM; in the assay on HCV replicon 2B (setting [1]) it was 26 pM; with HCV replicon 1A Y93H (setting [2]) it was 60 pM.
As to `COC(=O)NC(C(=O)N1[C@@H]2C[C@@H]2C[C@H]1c1ncc(-c2ccc3c(c2)cc2n3C(c3ccc4c(c3)CCCO4)Oc3cc(-c4cnc([C@@H]5CCCN5C(=O)[C@@H](NC(=O)OC)C(C)C)[nH]4)cc(F)c3-2)[nH]1)C1C[C@@H](C)O[C@@H](C)C1` (single isomer, unassigned) [Compound 65], the half-maximal effective concentration (EC50) with HCV replicon 1A (Hepatitis C virus, 72 h) was 2.9 pM; in the assay on HCV replicon 1B (Hepatitis C virus, 72 h), 1.8 pM; in the assay on HCV replicon 2B (setting [1]) it was 935 pM; in the assay on HCV replicon 1A Y93H (setting [2]), 43 pM.
`COC(=O)NC(C(=O)N1[C@@H]2C[C@@H]2C[C@H]1c1ncc(-c2ccc3c(c2)cc2n3C(c3ccc4c(c3)OCCC4)Oc3cc(-c4cnc([C@@H]5CCCN5C(=O)[C@@H](NC(=O)OC)C(C)C)[nH]4)cc(F)c3-2)[nH]1)C1C[C@@H](C)O[C@@H](C)C1` (single isomer, unassigned) [Compound 68]: the EC50 worked out at 1.8 pM with HCV replicon 1A; 2.3 pM in the assay on HCV replicon 1B (Hepatitis C virus, 72 h); 16 pM with HCV replicon 2B (setting [1]); 5 pM with HCV replicon 1A Y93H (setting [2]).

One may read the EC50 as the concentration giving half of the maximal effect.

Values taken from patent US10738062B2, “Chromane-substituted tetracyclic compounds and uses thereof for the treatment of viral diseases” (Merck Sharp & Dohme Corp., priority 2016, dated 2020).
